What was measured:
Assay in all cases: selective drug sensitivity score (sDSS, relative to normal bone marrow) (sDSS (score)); higher = more potent and effective on the cell line relative to normal bone marrow cells
Settings in all cases: 72 h
[1] = system: MHH-CALL-3
[2] = system: REH
[3] = system: NALM-16
[4] = system: NALM-6
[5] = system: RCH-ACV
[6] = system: P30-OHKUBO
[7] = system: COG-LL-332h
[8] = system: KASUMI-2
[9] = system: ALL-SIL
[10] = system: DND-41
[11] = system: SUP-B15
[12] = system: HPB-ALL
[13] = system: PF-382
[14] = system: KASUMI-10
[15] = system: LC4-1
[16] = system: RPMI-8402
[17] = system: COG-LL-355h
[18] = system: CCRF-CEM
[19] = system: NALL-1
[20] = system: SEM cells
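Further: ALL cell lines in 384-well plates, five doses spanning 10,000-fold, each plate scaled between vehicle and 100 µmol/L benzalkonium chloride controls, sDSS an adapted area-under-curve metric.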

| Compound | selective drug sensitivity score [1] | selective drug sensitivity score [2] | selective drug sensitivity score [3] | selective drug sensitivity score [4] | selective drug sensitivity score [5] | selective drug sensitivity score [6] | selective drug sensitivity score [7] | selective drug sensitivity score [8] | selective drug sensitivity score [9] | selective drug sensitivity score [10] | selective drug sensitivity score [11] | selective drug sensitivity score [12] | selective drug sensitivity score [13] | selective drug sensitivity score [14] | selective drug sensitivity score [15] | selective drug sensitivity score [16] | selective drug sensitivity score [17] | selective drug sensitivity score [18] | selective drug sensitivity score [19] | selective drug sensitivity score [20] |
| --- | --- | --- | --- | --- | --- | --- | --- | --- | --- | --- | --- | --- | --- | --- | --- | --- | --- | --- | --- | --- |
| CCCCNc1ncc(C(=O)NCc2ccc(-n3ccnc3)cc2)c(NC2CCC(O)CC2)n1 (stereo not given) [UNC2881] (top concentration 2500 nM) | 0 | 0.2 | 0 | 0 | 0.4 | 0 | 0.1 | 0 | 2.8 | 0 | 3.9 | 0 | 0 | 4.9 | 0 | 0 | 0 | 0 | 0.6 | 6.3 |
| CCN1CCN(c2ccc(Nc3cc(N(C)C(=O)Nc4c(Cl)c(OC)cc(OC)c4Cl)ncn3)cc2)CC1 [Infigratinib] (top concentration 1000 nM) | 0 | 0 | 0 | 0 | 0 | 0 | 0 | 0 | 0 | 0 | 0 | 0 | 0 | 0 | 0 | 0 | 0 | 0 | 0 | 0 |
| Cc1ccc(-c2cc(C(F)(F)F)nn2-c2ccc(S(N)(=O)=O)cc2)cc1 [Celecoxib] (top concentration 10000 nM) | 5.24 | -0.06 | -0.06 | -0.06 | 0.64 | -0.06 | 0.34 | 7.54 | 0.54 | 1.24 | 2.44 | -0.06 | 0.24 | -0.06 | 1.24 | 0.54 | -0.06 | -0.06 | -0.06 | -0.06 |
| C=CC(=O)Nc1cccc(Nc2nc(Nc3ccc(N4CCN(C(C)=O)CC4)cc3OC)ncc2C(F)(F)F)c1 [Rociletinib] (top concentration 10000 nM) | -1.06 | 0.84 | 4.04 | 4.94 | 2.54 | 4.24 | 1.84 | -2.46 | 3.64 | -0.56 | 1.44 | 1.74 | 0.64 | 6.94 | 3.94 | 2.24 | 5.84 | 2.44 | 3.14 | 6.34 |
| C[C@@H]1CN(C(=O)c2ccc(NC(=O)c3cc(O[C@H](C)c4c(Cl)ccc(F)c4Cl)c(N)nn3)cc2)C[C@H](C)N1 [Ensartinib] (top concentration 1000 nM) | -2.84 | -2.24 | -2.14 | -0.44 | -1.44 | 2.06 | 2.76 | -1.54 | 1.06 | -2.84 | 3.86 | -2.84 | -2.64 | -2.84 | -1.44 | 0.06 | 1.86 | -0.34 | -2.84 | -0.34 |
| COc1cc2c(Nc3ccc(Cl)c(Cl)c3F)ncnc2cc1OC[C@@H]1C[C@@H]2CN(C)C[C@@H]2C1 [Tesevatinib] (top concentration 1000 nM) | 3.64 | -1.36 | -1.36 | -0.16 | 0.64 | 0.94 | -0.86 | -1.36 | -0.26 | 1.44 | -1.36 | 0.64 | -1.06 | -1.06 | -1.16 | 0.44 | 2.04 | 1.34 | -0.06 | 1.44 |
| Cc1ccc(-n2nc(C(C)(C)C)cc2NC(=O)Nc2ccc(OCCN3CCOCC3)c3ccccc23)cc1 [Doramapimod] (top concentration 10000 nM) | -0.24 | 5.36 | 7.06 | -0.24 | 4.56 | 4.26 | 4.36 | -0.24 | -0.24 | -0.24 | 5.16 | 2.76 | 0.46 | 1.16 | 1.76 | 1.96 | 1.26 | -0.24 | -0.24 | 1.06 |
| C[C@@H]1CCN(C(=O)CC#N)C[C@@H]1N(C)c1ncnc2[nH]ccc12 [Tofacitinib] (top concentration 5000 nM) | -7.86 | -7.66 | -7.86 | -7.86 | -7.86 | -6.66 | -7.86 | -7.86 | -7.86 | 1.74 | -7.86 | -7.86 | -7.36 | -7.86 | -7.86 | -7.86 | 0.44 | -7.86 | -7.86 | -7.86 |
| COc1cc(C(=O)O)ccc1NC(=O)[C@@H]1N[C@@H](CC(C)(C)C)[C@](C#N)(c2ccc(Cl)cc2F)[C@H]1c1cccc(Cl)c1F [Idasanutlin] (top concentration 10000 nM) | 21.9 | 8.16 | -8.74 | 5.66 | 21 | 20.8 | 14.5 | 18.2 | -12.5 | -11 | 29.3 | -8.54 | -12.2 | 18.4 | 19.1 | -12.5 | 13.7 | -9.94 | -8.44 | -10 |
| Clc1ccc(C(c2ccccc2Cl)C(Cl)Cl)cc1 (stereo not given) [Mitotane] (top concentration 10000 nM) | -0.08 | -0.08 | -0.08 | -0.08 | -0.08 | -0.08 | 0.92 | -0.08 | -0.08 | -0.08 | -0.08 | 5.12 | 0.12 | -0.08 | -0.08 | -0.08 | 0.02 | -0.08 | -0.08 | -0.08 |
| CCS(=O)(=O)Nc1ccc(Oc2ccc(F)cc2F)c(-c2cn(C)c(=O)c3[nH]ccc23)c1 [Mivebresib] (top concentration 10000 nM) | 17.2 | -1.8 | 0.5 | 6 | 18.1 | 15.3 | -3.9 | -14.8 | 1.7 | 1.5 | 7.8 | 1.9 | 8 | 10.9 | 8.9 | 4.6 | 6 | 1.5 | 0.6 | 16 |
| CC(=O)O[C@@]12CO[C@@H]1C[C@H](O)[C@@]1(C)C(=O)[C@H](O)C3=C(C)[C@@H](OC(=O)[C@H](O)[C@@H](NC(=O)OC(C)(C)C)c4ccccc4)C[C@@](O)([C@@H](OC(=O)c4ccccc4)[C@H]21)C3(C)C [Docetaxel] (top concentration 1000 nM) | 7.3 | 21.1 | 12.3 | 14.1 | 22.6 | 20.4 | 22.2 | 16.4 | 20.6 | 3.3 | 21.7 | 12.5 | 10.5 | 14.6 | 22.9 | 13.2 | 5.1 | 19.8 | 15.9 | 19.5 |
| C[C@H]1C[C@@H](n2c(Nc3ccc(OC(F)(F)F)cc3)nc3cc(CCC(=O)O)ccc32)CC(C)(C)C1 (top concentration 10000 nM) | -0.14 | 0.36 | -0.14 | 0.16 | -0.14 | -0.14 | 1.36 | -0.14 | 1.06 | -0.14 | 2.16 | 5.56 | 0.66 | -0.14 | 0.76 | 1.46 | 2.16 | 1.56 | -0.14 | 0.16 |
| CC(=O)O[C@H]1C(=O)[C@@]2(C)[C@H]([C@H](OC(=O)c3ccccc3)[C@]3(O)C[C@H](OC(=O)[C@H](O)[C@@H](NC(=O)c4ccccc4)c4ccccc4)C(C)=C1C3(C)C)[C@]1(OC(C)=O)CO[C@@H]1C[C@@H]2O [Paclitaxel] (top concentration 1000 nM) | 5.24 | 23.1 | 14.1 | 16.7 | 21.8 | 22 | 20.5 | 18.3 | 20.8 | 2.04 | 21.1 | 14.1 | 13.2 | 11.5 | 23 | 16 | 5.14 | 18.3 | 12.2 | 21.3 |
| CC1(C)C(C(=O)Nc2ccc(S(=O)(=O)c3ccc(NC(=O)C4C(C)(C)C4(C)C)cc3)cc2)C1(C)C [BRD7116] (top concentration 10000 nM) | -0.24 | 2.86 | 1.06 | 1.96 | -0.14 | 4.46 | -0.24 | -0.24 | -0.24 | -0.24 | -0.14 | 3.26 | 0.36 | 0.86 | 1.76 | 0.96 | -0.24 | 1.16 | -0.24 | -0.24 |
| CC[C@@H]1CN(C(=O)NCC(F)(F)F)C[C@@H]1c1cnc2cnc3[nH]ccc3n12 [Upadacitinib] (top concentration 10000 nM) | -0.46 | -7.16 | -7.16 | -5.96 | -7.16 | -3.16 | -6.66 | -6.56 | -7.16 | 0.84 | -7.16 | -7.16 | -6.06 | -7.16 | -5.16 | -7.16 | -7.16 | -4.66 | -7.16 | -7.16 |
| COc1cc([C@@H]2c3cc4c(cc3[C@@H](O[C@@H]3O[C@@H]5CO[C@@H](C)O[C@H]5[C@H](O)[C@H]3O)[C@H]3COC(=O)[C@H]23)OCO4)cc(OC)c1O [Etoposide] (top concentration 10000 nM) | 19.7 | 20.3 | 2.64 | 14.1 | 25.1 | 16.3 | 22.7 | 20.9 | 14.3 | 11.3 | 26.8 | 7.74 | 13.5 | 13 | 14.8 | 17.4 | 6.74 | 20.2 | 14.9 | 15.5 |

From the supplement of paper PMC8967900
